Data reported in US20090118202A1, “COMPOSITIONS AND METHODS OF TREATING HYPERTENSION WITH TANNIN COMPLEXES” (Texas Tech University, priority 2007, published 2009).

Key:
MAP-kinases p42 and p44 = assay: MAP-kinase phosphorylation in rat liver cells exposed to tannic acid (Western blot); type: cell-based; conditions: pretreatment of cells with the inhibitor
Protocol: FIGS. 6A-6C are images of a Western blot illustrating rat liver cells exposed to tannic acid in the presence or absence of the MAP-Kinase specific cell permeable inhibitor PD 98059 for 20 hours and total cell extracts were prepared. Equal amount of proteins were resolved by 8% polyacrylamide gel electrophoresis and immunoblotted with phospho-specific MAP-Kinase antibody in FIG. 6A, anti-MAP-kinase antibody in FIG. 6B, AT1 specific antibody in FIG. 6C top or anti-beta-actin antibody in FIG. 6C bottom. Immunoreactive bands were visualized using a chemiluminescence Western blotting system according to the manufacturer's instruction. In each plate protein concentration was determined using Bio-Rad protein assay reagent.

AT1 receptor = assay: AT1 specific AngII binding in WB cells exposed to tannic acid; type: cell-based, rat; conditions: pretreatment of cells with the inhibitor
Protocol: The present invention provides the use of hydrolysable tannic acids to affect angiotensin type 1 (AT1) receptor expression. The present invention used WB (i.e., a continuously passaged rat liver epithelial cell line) which expresses the native AT1 receptor. Under normal culture conditions, cells were exposed to tannic acid and changes in receptor expression and signaling intermediates were determined.
FIG. 3A is an image of a plot illustrating the effects of tannic acid on native AT1, rat liver cells were exposed to tannic acid at indicated concentration for 20 hours.

## COc1cccc(-c2cc(=O)c3ccccc3o2)c1N [MAP kinase specific inhibitor, PD98059]
MAP-kinases p42 and p44
  prevention of tannic acid induced MAP-kinases phosphorylation: ineffective
AT1 receptor
  prevention of tannic acid induced down regulation of the AT1 receptor: ineffective
